# Measured values from patent US20070049592A1, “Bis-aryl urea compounds and methods of use” (priority 2005, published 2007).
# System: Human Umbilical Vein Endothelial cells
# Experiment: HUVEC proliferation assay (VEGF)
# Format: cell-based
# Settings: VEGF-stimulated HUVEC proliferation
# Method: Human Umbilical Vein Endothelial cells are purchased from Clonetics, Inc., as cryopreserved cells harvested from a pool of donors. These cells, at passage 1, are thawed and expanded in EBM-2 complete medium, until passage 2 or 3. The cells are trypsinized, washed in DMEM+10% FBS+antibiotics, and spun at 1000 rpm for 10 min. Prior to centrifugation of the cells, a small amount is collected for a cell count. After centrifugation, the medium is discarded, and the cells are resuspended in the appropriate volume of DMEM+10% FBS+antibiotics to achieve a concentration of 3×10^5 cells/mL. Another cell count is performed to confirm the cell concentration. The cells are diluted to 3×10^4 cells/mL in DMEM+10% FBS+antibiotics, and 100 μL of cells are added to a 96-well plate. The cells are incubated at 37° C. for 22 h.
# Prior to the completion of the incubation period, compound dilutions are prepared. Five-point, five-fold serial dilutions are prepared in DMSO, at concentrations 400-fold greater than the final concentrations desired. 2.5 μL of each compound dilution are diluted further in a total of 1 mL DMEM+10% FBS+antibiotics (400× dilution). Medium containing 0.25% DMSO is also prepared for the 0 μM compound sample. At the 22 h timepoint, the medium is removed from the cells, and 100 μL of each compound dilution is added. The cells are incubated at 37° C. for 2-3 h.
# During the compound pre-incubation period, the growth factors are diluted to the appropriate concentrations. Solutions of DMEM+10% FBS+antibiotics, containing either VEGF or bFGF at the following concentrations: 50, 10, 2, 0.4, 0.08, and 0 ng/mL are prepared. For the compound-treated cells, solutions of VEGF at 550 ng/mL or bFGF at 220 ng/mL for 50 ng/mL or 20 ng/mL final concentrations, respectively, are prepared since 10 μL of each will be added to the cells (110 μL final volume). At the appropriate time after adding the compounds, the growth factors are added. VEGF is added to one set of plates, while bFGF is added to another set of plates. For the growth factor control curves, the media on wells B4-G6 of plates 1 and 2 are replaced with media containing VEGF or bFGF at the varying concentrations (50-0 ng/mL). The cells are incubated at 37° C. for an additional 72 h.
# At the completion of the 72 h incubation period, the medium is removed, and the cells are washed twice with PBS. After the second wash with PBS, the plates are tapped gently to remove excess PBS, and the cells are placed at −70° C. for at least 30 min. The cells are thawed and analyzed using the CyQuant fluorescent dye (Molecular Probes C-7026), following the manufacturer's recommendations. The plates are read on a Victor/Wallac 1420 workstation at 485 nm/530 nm (excitation/emission). Raw data is collected and analyzed using a 4-parameter fit equation in XLFit. IC50 values are then determined.
row,SMILES,IC50 [µM]
1,"Cc1ccc(C(=O)Nc2cccc(C(C)C)c2)cc1NC(=O)N(CCCN1CCOCC1)c1ccncn1 [Example 22, 4-methyl-N-(3-(1-methylethyl)phenyl)-3-((((3-(4-morpholinyl)propyl)(4-pyrimidinyl)amino)carbonyl)amino)benzamide]",< 5
2,CNc1ncnc(N(C)C(=O)Nc2cc(C(=O)Nc3cccc(N(C)C)c3)ccc2C)n1 [Example 28],< 5
3,"CNc1ncnc(N(C)C(=O)Nc2cc(C(=O)NCc3ccccc3)ccc2C)n1 [Example 49, 4-methyl-3-(((methyl(4-(methylamino)-1,3,5-triazin-2-yl)amino)carbonyl)amino)-N-(phenylmethyl) benzamide]",< 5
4,"CCCCNC(=O)c1ccc(C)c(NC(=O)N(C)c2cc(NC)ncn2)c1 [Example 42, N-butyl-4-methyl-3-(((methyl(6-(methylamino)-4-pyrimidinyl)amino)carbonyl)amino)benzamide]",< 5
5,"CNc1cc(N(C)C(=O)Nc2cc(C(=O)Nc3ccc(Cl)cc3)ccc2C)ncn1 [Example 40, N-(4-chlorophenyl)-4-methyl-3-(((methyl(6-(methylamino)-4-pyrimidinyl)amino)carbonyl)amino)benzamide]",< 5
6,"CNc1cc(N(C)C(=O)Nc2cc(C(=O)NCc3ccccc3)ccc2C)ncn1 [Example 45, 4-methyl-3-(((methyl(6-(methylamino)-4-pyrimidinyl)amino)carbonyl)amino)-N-(phenylmethyl) benzamide]",< 5
7,"CNC(=O)c1cc(N(C)C(=O)Nc2cc(C(=O)N3CCCc4ccc(C(F)(F)F)cc43)ccc2C)ccn1 [Example 71, N-methyl-4-(methyl(((2-methyl-5-((7-(trifluoromethyl)-3,4-dihydro-1(2H)-quinolinyl)carbonyl)phenyl)amino)carbonyl)amino)-2-pyridinecarboxamide]",< 5
8,"CNc1ncnc(N(C)C(=O)Nc2cc(C(=O)Nc3cc(OC)cc(C(F)(F)F)c3)ccc2C)n1 [Example 36, 4-methyl-3-(((methyl(4-(methylamino)-1,3,5-triazin-2-yl)amino)carbonyl)amino)-N-(3-(methyloxy)-5-(trifluoromethyl)phenyl)benzamide]",< 5
9,"CNc1ncnc(N(C)C(=O)Nc2cc(C(=O)Nc3ccc(C(C)(C)C)cc3)ccc2C)n1 [Example 27, N-(4-1,1-(dimethylethyl)phenyl)-4-methyl-3-(((methyl(4-(methylamino)-1,3,5-triazin-2-yl)amino)carbonyl)amino)benzamide]",< 5
10,"CNc1cc(N(C)C(=O)Nc2cc(C(=O)Nc3ccccc3)ccc2C)ncn1 [Example 41, 4-methyl-3-(((methyl(6-(methylamino)-4-pyrimidinyl)amino)carbonyl)amino)-N-phenylbenzamide]",< 5
11,"CNc1cc(N(C)C(=O)Nc2cc(C(=O)Nc3ccc4sc(C)nc4c3)ccc2C)ncn1 [Example 33, 4-methyl-N-(2-methyl-1,3-benzothiazol-5-yl)-3-(((methyl(6-(methylamino)-4-pyrimidinyl)amino)carbonyl)amino)benzamide]",< 5
12,"CNc1nccc(N(CCCN2CCOCC2)C(=O)Nc2cc(C(=O)Nc3cc(C4CCCCC4)ccc3OC)ccc2C)n1 [Example 50, N-(5-cyclohexyl-2-(methyloxy)phenyl)-4-methyl-3-((((2-(methylamino)-4-pyrimidinyl)(3-(4-morpholinyl)propyl)amino)carbonyl)amino) benzamide]",< 5
13,"CNc1ncnc(N(C)C(=O)Nc2cc(C(=O)Nc3ccc(C(C)C)c(C)c3)ccc2C)n1 [Example 38, 4-methyl-3-(((methyl(4-(methylamino)-1,3,5-triazin-2-yl)amino)carbonyl)amino)-N-(3-methyl-4-(1-methylethyl)phenyl)benzamide]",< 5
14,"CNc1cc(N(C)C(=O)Nc2cc(C(=O)Nc3cc(C(F)(F)F)ccc3OCCN3CCCC3)ccc2C)ncn1 [Example 34, 4-methyl-3-(((methyl(6-(methylamino)-4-pyrimidinyl)amino)carbonyl)amino)-N-(2-((2-(1-pyrrolidinyl)ethyl)oxy)-5-(trifluoromethyl)phenyl)benzamide]",< 5
15,"CNc1ncnc(N(C)C(=O)Nc2cc(C(=O)Nc3ccc4sc(C)nc4c3)ccc2C)n1 [Example 35, 4-methyl-N-(2-methyl-1,3-benzothiazol-5-yl)-3-(((methyl(4-(methylamino)-1,3,5-triazin-2-yl)amino)carbonyl)amino)benzamide]",< 5
16,CNc1cc(N(C)C(=O)Nc2cc(C(=O)Nc3ccc(C(C)C)c(C)c3)ccc2C)ncn1 [Example 19],< 5
17,"COc1ccc(C2CCCCC2)cc1NC(=O)c1ccc(C)c(NC(=O)N(CCCN2CCOCC2)c2ccncn2)c1 [Example 46, N-(5-cyclohexyl-2-(methyloxy)phenyl)-4-methyl-3-((((3-(4-morpholinyl)propyl)(4-pyrimidinyl)amino)carbonyl)amino)benzamide]",< 5
18,"CNc1ncnc(N(C)C(=O)Nc2cc(C(=O)Nc3cccc(C(F)(F)F)c3C)ccc2C)n1 [Example 37, 4-methyl-3-(((methyl(4-(methylamino)-1,3,5-triazin-2-yl)amino)carbonyl)amino)-N-(2-methyl-3-(trifluoromethyl)phenyl)benzamide]",< 5
19,"CNc1cc(N(C)C(=O)Nc2cc(C(=O)Nc3cccc(N(C)C)c3)ccc2C)ncn1 [Example 26, N-(3-(dimethylamino)phenyl)-4-methyl-3-((methyl(6-(methylamino)-4-pyrimidinyl)amino)carbonylamino)benzamide]",< 5
20,"CCCCNC(=O)c1ccc(C)c(NC(=O)N(C)c2ncnc(NC)n2)c1 [Example 48, N-butyl-4-methyl-3-(((methyl(4-(methylamino)-1,3,5-triazin-2-yl)amino)carbonyl)amino)benzamide]",< 5
21,"CNc1ncnc(N(C)C(=O)Nc2cc(C(=O)Nc3cccc(-c4ccccc4)c3)ccc2C)n1 [Example 39, N-(1,1′-biphenyl-3-yl)-4-methyl-3-(((methyl(4-(methylamino)-1,3,5-triazin-2-yl)amino)carbonyl)amino)benzamide]",< 5
22,"CNc1cc(N(C)C(=O)Nc2cc(C(=O)Nc3cc(C4CCCCC4)ccc3OC)ccc2C)ncn1 [Example 43, N-(5-cyclohexyl-2-(methyloxy)phenyl)-4-methyl-3-(((methyl(6-(methylamino)-4-pyrimidinyl)amino)carbonyl)amino)benzamide]",< 5
23,"CNc1cc(N(C)C(=O)Nc2cc(C(=O)Nc3ccc4c(c3)N(C(C)=O)CC4(C)C)ccc2C)ncn1 [Example 21, N-(1-acetyl-3,3-dimethyl-2,3-dihydro-1H-indol-6-yl)-4-methyl-3-(((methyl(6-(methylamino)-4-pyrimidinyl)amino)carbonyl)amino)benzamide]",< 5
24,"CNc1ncnc(N(C)C(=O)Nc2cc(C(=O)Nc3ccc(Cl)cc3)ccc2C)n1 [Example 47, N-(4-chlorophenyl)-4-methyl-3-(((methyl(4-(methylamino)-1,3,5-triazin-2-yl)amino)carbonyl)amino) benzamide]",< 5
25,"CNc1ncnc(N(C)C(=O)Nc2cc(C(=O)Nc3ccccc3)ccc2C)n1 [Example 44, 4-methyl-3-(((methyl(4-(methylamino)-1,3,5-triazon-2-yl)amino)carbonyl)amino)-N-phenylbenzamide]",< 5
26,"CNc1nccc(N(CCCN2CCOCC2)C(=O)Nc2cc(C(=O)Nc3cccc(C(C)C)c3)ccc2C)n1 [Example 29, 4-methyl-3-((((2-(methylamino)-4-pyrimidinyl) (3-(4-morpholinyl)propyl)amino)carbonyl)amino)-N-(3-(1-methylethyl)phenyl)benzamide]",< 5
